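Cultured in 96-well plates, cells were exposed to test compound for 48 hours across five concentrations. At the GI50, growth is halved.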 Activity calls are given as the source filed them. Cut-off read from the data, not from the text of the source: active = GI50 up to about 1.1 µM and inactive = higher.
What was measured:
Test in all cases: inhibition of tumour cell growth, NCI panel, 48 h
NCI-H23 = test system: NCI-H23
ACHN = test system: ACHN
U-251 = test system: U-251
NCI-H522 = test system: NCI-H522
PC-3 = test system: PC-3
BT-549 = test system: BT-549
HCC 2998 = test system: HCC 2998
SK-MEL-5 = test system: SK-MEL-5
NCI-H460 = test system: NCI-H460
HOP-62 = test system: HOP-62
M14 = test system: M14
UO-31 = test system: UO-31
EKVX = test system: EKVX
MDA-MB-435 = test system: MDA-MB-435
SK-MEL-2 = test system: SK-MEL-2
DU-145 = test system: DU-145
CCRF-CEM = test system: CCRF-CEM
NCI/ADR-RES = test system: NCI/ADR-RES
A549 = test system: A549
NCI-H226 = test system: NCI-H226

Measured: GI50

Fc1ccc(C(OCCN2CCC3CCC(C2)N3CCCc2ccccc2)c2ccc(F)cc2)cc1 (stereo not given)
inactive: NCI-H23 4.1 µM | ACHN 5.6 µM | U-251 4.33 µM | NCI-H522 3.35 µM | PC-3 2.98 µM | BT-549 8.89 µM | HCC 2998 2.08 µM | SK-MEL-5 1.76 µM | NCI-H460 2.58 µM | HOP-62 7.38 µM | M14 2.1 µM | UO-31 5.56 µM | EKVX 3.82 µM | MDA-MB-435 2.61 µM | SK-MEL-2 3.48 µM | DU-145 8 µM | CCRF-CEM 3.01 µM | NCI/ADR-RES 3.62 µM | A549 6.15 µM | NCI-H226 3.94 µM

CCOC(=O)c1c(C)c(C)n2c1NC(=O)C2
inactive: NCI-H23 > 43 µM | ACHN > 76.2 µM | U-251 > 48.1 µM | NCI-H522 > 43.7 µM | PC-3 36.8 µM | BT-549 50.9 µM | HCC 2998 97.1 µM | SK-MEL-5 > 100 µM | NCI-H460 > 53.1 µM | HOP-62 > 66.5 µM | M14 > 53.7 µM | UO-31 > 64.3 µM | EKVX > 60.5 µM | MDA-MB-435 > 100 µM | SK-MEL-2 > 100 µM | DU-145 20.8 µM | CCRF-CEM > 100 µM | NCI/ADR-RES 20.4 µM | A549 > 82.6 µM | NCI-H226 > 100 µM

Cc1nn(-c2cc(Cl)ccc2[N+](=O)[O-])c(C)c1Cl
inactive: NCI-H23 > 100 µM | ACHN > 100 µM | U-251 > 100 µM | NCI-H522 > 100 µM | PC-3 51.2 µM | BT-549 42.5 µM | HCC 2998 38.6 µM | SK-MEL-5 81.7 µM | NCI-H460 70.5 µM | HOP-62 > 100 µM | M14 > 100 µM | UO-31 20.8 µM | EKVX 76 µM | MDA-MB-435 > 100 µM | SK-MEL-2 > 100 µM | DU-145 > 100 µM | CCRF-CEM 37.5 µM | NCI/ADR-RES 55.8 µM | A549 71.1 µM | NCI-H226 65.8 µM

CC1=CN(c2ccccc2)S2=C1c1sc3c(c1N2c1ccc(Br)cc1)CCCC3 (stereo not given)
inactive: NCI-H23 > 100 µM | ACHN > 100 µM | U-251 > 100 µM | NCI-H522 > 100 µM | PC-3 > 100 µM | BT-549 > 100 µM | HCC 2998 > 100 µM | SK-MEL-5 > 100 µM | NCI-H460 > 100 µM | HOP-62 > 100 µM | M14 > 100 µM | UO-31 > 100 µM | EKVX > 100 µM | MDA-MB-435 > 100 µM | SK-MEL-2 > 100 µM | DU-145 > 100 µM | CCRF-CEM > 100 µM | NCI/ADR-RES > 100 µM | A549 > 100 µM | NCI-H226 > 100 µM

COc1cc(OC)nc(Nc2c(C#N)c3nc4ccccc4n3c3ccccc23)n1
inactive: NCI-H23 32.1 µM | ACHN 18.7 µM | U-251 31.3 µM | NCI-H522 19.2 µM | PC-3 40.3 µM | BT-549 15.8 µM | HCC 2998 > 100 µM | SK-MEL-5 > 100 µM | NCI-H460 43 µM | HOP-62 16.6 µM | M14 > 100 µM | UO-31 53.1 µM | EKVX 72.3 µM | MDA-MB-435 > 100 µM | SK-MEL-2 25.8 µM | DU-145 > 100 µM | CCRF-CEM > 100 µM | NCI/ADR-RES 29.8 µM | A549 > 100 µM | NCI-H226 39.4 µM

COc1cc2c3c4c1OCc1c5c(cc(c1-4)CC3[N+](C)(C)CC2)OCO5 (stereo not given)
inactive: NCI-H23 54.8 µM | ACHN > 100 µM | U-251 4.9 µM | NCI-H522 27.1 µM | PC-3 > 100 µM | BT-549 2.83 µM | HCC 2998 > 100 µM | SK-MEL-5 > 100 µM | NCI-H460 > 100 µM | HOP-62 31.1 µM | M14 > 100 µM | UO-31 > 100 µM | EKVX > 100 µM | MDA-MB-435 > 100 µM | SK-MEL-2 > 100 µM | DU-145 > 100 µM | CCRF-CEM > 100 µM | NCI/ADR-RES > 80.5 µM | A549 > 100 µM | NCI-H226 32.3 µM

C=C1C(=O)O[C@H]2[C@@H]3O[C@@](C)(CC/C=C(\C)CCC[C@@H]2C)[C@H](O)C[C@@H]13
inactive: NCI-H23 1.61 µM | ACHN 1.98 µM | U-251 13.5 µM | NCI-H522 1.61 µM | PC-3 8.49 µM | BT-549 2.79 µM | HCC 2998 5.02 µM | SK-MEL-5 2.08 µM | NCI-H460 2.99 µM | HOP-62 10.5 µM | M14 1.95 µM | UO-31 2.87 µM | EKVX 22.9 µM | MDA-MB-435 3.06 µM | SK-MEL-2 11.8 µM | DU-145 6.5 µM | CCRF-CEM 10.2 µM | NCI/ADR-RES 2.04 µM | A549 6.79 µM | NCI-H226 2.11 µM

Cc1ccccc1OC(C)C(=O)NN1C(=O)CC(=O)N(c2ccc(Cl)cc2)C1=S (stereo not given)
inactive: NCI-H23 31 µM | ACHN 33.8 µM | U-251 34.1 µM | NCI-H522 32.3 µM | PC-3 31.9 µM | BT-549 37.2 µM | HCC 2998 27.4 µM | SK-MEL-5 25.1 µM | NCI-H460 31 µM | HOP-62 47.9 µM | M14 44.8 µM | UO-31 41 µM | EKVX 41.7 µM | MDA-MB-435 49.3 µM | SK-MEL-2 27.8 µM | DU-145 36.1 µM | CCRF-CEM 19.3 µM | NCI/ADR-RES 29.4 µM | A549 43.9 µM | NCI-H226 31.5 µM

C[N+]1(CCN[N+]2(C)CCCCC2)CCc2ccccc2C1 (stereo not given)
inactive: NCI-H23 > 100 µM | ACHN > 100 µM | U-251 > 100 µM | NCI-H522 > 100 µM | PC-3 > 100 µM | BT-549 > 100 µM | HCC 2998 > 100 µM | SK-MEL-5 > 100 µM | NCI-H460 > 100 µM | HOP-62 > 100 µM | M14 > 100 µM | UO-31 > 100 µM | EKVX > 100 µM | MDA-MB-435 > 100 µM | SK-MEL-2 > 100 µM | DU-145 > 100 µM | CCRF-CEM > 100 µM | NCI/ADR-RES > 100 µM | A549 > 100 µM | NCI-H226 60.4 µM

C[n+]1ccccc1/C1=c2\cc/c([nH]2)=C(\c2cccc[n+]2C)C2=N/C(=C(/c3cccc[n+]3C)C3C=CC(N3)/C(c3cccc[n+]3C)=C3/C=CC1=N3)C=C2
inactive: NCI-H23 > 100 µM | ACHN > 100 µM | U-251 > 100 µM | NCI-H522 > 100 µM | PC-3 > 100 µM | BT-549 > 100 µM | HCC 2998 > 100 µM | SK-MEL-5 71.4 µM | NCI-H460 40.9 µM | HOP-62 > 100 µM | M14 > 100 µM | UO-31 > 100 µM | EKVX > 100 µM | MDA-MB-435 57 µM | SK-MEL-2 > 100 µM | DU-145 > 100 µM | CCRF-CEM 3.26 µM | NCI/ADR-RES > 100 µM | A549 > 100 µM | NCI-H226 > 100 µM

Reference: ChEMBL document CHEMBL1201862, “PubChem BioAssay data set” (2004)
